According to patent publication US6491948B1, “Composition comprising isoquercetin and ascorbic acid in a sustained release form” (Merck Patent GmbH, priority 1999, dated 2002):

Tests used:
[1] = in vivo; cited from earlier work
[2] = pharmacokinetic studies: absorption and bioavailability; parameters: species or system man; conditions: in vivo
Text: Absorbed isoquercetin interacts with ascorbate keeping it in the reduced state and, at the same time, is being protected by ascorbate by being kept in the oxidized state (Yamasaki, H. et al. (1997), Flavanoid-peroxidase reaction as a detoxification mechanism of plant cells against H2O2).

[3] = passage of the blood-brain barrier / entry into the brain; type: in vivo; conditions: isoquercetin given one hour before ascorbate
Text: The second form of ascorbic acid, semidehydroascorbic acid (ascorbate free radical) participates in univalent redox systems that is in the antioxidant defense activity. See Bors, W. et al. (1995), Interaction of Flavonoids with Ascorbate and Determination of their Univalent Redox Potentials: a Pulse Radiolysis Study, Free Radical Biology and Medicine, vol. 19, No. 1, 45-52. This means semidehydroascorbic acid participates most likely in free radical scavenging activities. According to the article Gordon, M. H. (1996), Dietary Antioxidants in Disease Prevention, Natural Product Reports, pp. 265-273, “ascorbate appears to be the most important non-protein antioxidant in plasma” p. 270. […] See Agus, D. B. et al. (1997), Vitamin C crosses the blood-brain barrier in the oxidized form through the glucose transporters, J. Clin. Invest., 100 (11) 2842-2848. After entering the brain dehydroascorbic acid is reduced and retained as ascorbic acid.

[4] = man; cited from earlier work
[5] = in vivo; cited from earlier work; remark: listed apart in the source

SMILES | crossing of the blood-brain barrier [1] | absorption rate and bioavailability [2] | entry into the brain and reduction of dehydroascorbate [3] | absorption compared with rutin and quercetin [4] | concentration in brain relative to blood serum [5] [times]
O=C1O[C@H]([C@@H](O)CO)C(=O)C1=O [dehydroascorbic acid] | readily enters the brain | – | – | – | –
O=c1c(O[C@@H]2O[C@H](CO)[C@@H](O)[C@H](O)[C@H]2O)c(-c2ccc(O)c(O)c2)oc2cc(O)cc(O)c12 [isoquercetin, quercetin-3-O-glucoside] | – | excellent absorption rate and bioavailability | enters the brain and reduces dehydroascorbate | absorbed better than rutin and quercetin | –
O=C1O[C@H]([C@@H](O)CO)C(O)=C1O [Ascorbic acid, ascorbic acid] | not able to cross blood-brain barrier | – | – | – | 10
